Reference: US9328374B2, “Selective culture medium and method for detecting carbapenem-resistant bacteria in a test sample” (Institut National de la Sante et de la Recherche Medicale …, priority 2011, dated 2016)

Test system: E. coli
Assay: MIC of imipenem, ertapenem and meropenem
Format: cell-based, Escherichia coli

Measured: MIC

C[C@@H](O)[C@H]1C(=O)N2C(C(=O)O)=C(S[C@@H]3CN[C@H](C(=O)N(C)C)C3)[C@H](C)[C@H]12 [MEM, meropenem]
0.008 µg/mL: E. coli 6252, (wild type), non-carbapenemase producer
1 µg/mL: E. coli 0404018, VIM-1+ CMY-6 | E. coli 1108013, IMP-1 + TEM-1 | E. coli HAN (OXA-48 + CTX-M-15) | E. coli HAN, OXA-48 + CTX-M-15 | E. coli LIL, KPC-2 + TEM-1 + OXA-9 | E. coli RIC (NDM-1 + OXA-1 + OXA-10 + CMY-16) | E. coli RIC, NDM-1 + CMY-16 + OXA-1 + OXA-10
12 µg/mL: E. coli GEN (NDM-1 + OXA-1 + CMY-30 + TEM-1) | E. coli GEN, NDM-1 + TEM-1 + CMY-30 + OXA-1
3 µg/mL: E. coli TWA, IMP-8 + SHV-12
0.75 µg/mL: E. coli ZAN, OXA-48 + TEM-1 + CTX-M-14
2 µg/mL: E. coli COL (KPC-2) | E. coli COL, KPC-2 + TEM-1 + CTX-M-9 | E. coli GUE (NDM-1 + OXA-1 + TEM-1) | E. coli GUE, NDM-1 + TEM-1 + OXA-1 | E. coli MAR (Overexpressed AmpC) | E. coli MAR, Overexpressed AmpC, non-carbapenemase producer
8 µg/mL: E. coli ALL (NDM-1 + OXA-1 + OXA-2 + CTX-M-15 + TEM-1) | E. coli ALL, NDM-1 + TEM-1 + CTX-M-15 + OXA-1 + OXA-2 | E. coli OM20, NDM-1 + TEM-1 + CTX-M-15
0.12 µg/mL: E. coli E14 (CTX-M-14)
0.38 µg/mL: E. coli OM3, OXA-48 + TEM-1 + CTX-M-15
16 µg/mL: E. coli AUS (NDM-1 + CTX-M-15 + TEM-1) | E. coli AUS, NDM-1 + TEM-1 + CTX-M-15 | E. coli IR5 (NDM-1 + CTX-M-15 + TEM-1) | E. coli IR5, NDM-1 + TEM-1 + CTX-M-15
4 µg/mL: E. coli 1008077, VIM-1+ TEM-1 + CTX-M-15 | E. coli DIH (VIM-19) | E. coli DIH, VIM-19
0.25 µg/mL: E. coli GOG (OXA-48 + CTX-M-24) | E. coli HB4 (OmpC-, OmpF-) | E. coli HB4, (OmpC-, OmpF-), non-carbapenemase producer, porin deficiency | E. coli NAA (OXA-48 + CTX-M-24) | E. coli OM22, OXA-48 + TEM-1 + CTX-M-15 | E. coli ROB (OXA-48) | E. coli ROB, OXA-48
0.5 µg/mL: E. coli DIN, KPC-2 + TEM-1 + OXA-1 | E. coli JAP (IMP-1) | E. coli JAP, IMP-1 | E. coli MAD (VIM-1 + CTX-M-3) | E. coli MAD, VIM-1+ CTX-M-3 | E. coli PSP (KPC-2) | E. coli PSP, KPC-2 + TEM-1 + OXA-1
0.19 µg/mL: E. coli AME (OXA-48 + CTX-M-24) | E. coli AME, OXA-48 + CTX-M-24 | E. coli BER (OXA-48 + CTX-M-15) | E. coli BER, OXA-48 + TEM-1 + CTX-M-15 | E. coli BOK (OXA-48 + CTX-M-15) | E. coli BOK, OXA-48 + CTX-M-15 | E. coli BON (OXA-48 + CTX-M-24 + TEM-1) | E. coli BON, OXA-48 + TEM-1 + CTX-M-24
0.125 µg/mL: E. coli BOU (OXA-48 + CTX-M-15) | E. coli BOU, OXA-48 + CTX-M-15
0.023 µg/mL: E. coli 1092 (OXA-1) | E. coli 1092, OXA-1, non-carbapenemase producer
0.012 µg/mL: E. coli 6367 (wild type) | E. coli 6367, (wild type), non-carbapenemase producer | E. coli E14, CTX-M-14, non-carbapenemase producer | E. coli ECA, ACC-1, non-carbapenemase producer | E. coli EVB, VEB-1, non-carbapenemase producer | E. coli FOR, CTX-M-15, non-carbapenemase producer | E. coli MET, Chromosome-encoded extended-spectrum cephalosporinase, non-carbapenemase producer | E. coli SYD, CMY-2, non-carbapenemase producer
0.016 µg/mL: E. coli 1008 (TEM-1 + CTX-M-1) | E. coli 1008, CTX-M-1 + TEM-1, non-carbapenemase producer | E. coli 1020, CTX-M-1 + TEM-1, non-carbapenemase producer | E. coli 1023, CTX-M-2 + TEM-1, non-carbapenemase producer | E. coli 1033, CTX-M-15, non-carbapenemase producer | E. coli 1034 (TEM-1 + SHV-38) | E. coli 1034, TEM-1 + SHV-38, non-carbapenemase producer | E. coli 1048 (TEM-1 + SHV-2a) | E. coli 1048, TEM-1 + SHV-2a, non-carbapenemase producer | E. coli 1082 (TEM-1) | E. coli 1082, TEM-1, non-carbapenemase producer | E. coli 10121 (CTX-M-2) | E. coli 10121, CTX-M-2, non-carbapenemase producer | E. coli 10122, CTX-M-1 + TEM-1, non-carbapenemase producer | strain E. coli 1008, TEM-1 + CTX-M-1, non-carbapenemase producer | strain E. coli 1034, TEM-1 + SHV-38, non-carbapenemase producer | strain E. coli 1048, TEM-1 + SHV-2a, non-carbapenemase producer
